Laboratory results: ChEMBL document CHEMBL1134982, “Natural PTP1B inhibitors from Broussonetia papyrifera” (Bioorg Med Chem Lett, 2002)

molecular target: T1, Tyrosine-protein phosphatase non-receptor type 1 (Homo sapiens, UniProt P18031); assay: The inhibitory activity tested against human Protein-tyrosine phosphatase 1B enzyme
T1 sequence (P18031 whole entry): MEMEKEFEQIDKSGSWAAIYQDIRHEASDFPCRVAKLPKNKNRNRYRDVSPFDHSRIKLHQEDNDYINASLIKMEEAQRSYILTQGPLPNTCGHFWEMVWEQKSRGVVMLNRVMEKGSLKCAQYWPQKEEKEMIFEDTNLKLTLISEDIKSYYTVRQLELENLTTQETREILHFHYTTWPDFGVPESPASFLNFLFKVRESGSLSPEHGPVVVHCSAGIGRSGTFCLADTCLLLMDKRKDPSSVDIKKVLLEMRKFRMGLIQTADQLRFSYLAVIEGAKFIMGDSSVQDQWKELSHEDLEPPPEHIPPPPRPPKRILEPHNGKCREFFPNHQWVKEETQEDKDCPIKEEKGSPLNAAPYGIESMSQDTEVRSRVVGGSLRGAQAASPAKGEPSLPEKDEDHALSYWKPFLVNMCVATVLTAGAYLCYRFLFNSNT

IC50 [µM]	Compound
21.5	CC(C)=CCc1cc(-c2oc3cc(O)cc(O)c3c(=O)c2O)cc(O)c1O
4.3	C=CC(C)(C)c1c(O)cc(O)c2c(=O)c(O)c(-c3cc(O)c(O)c(CC=C(C)C)c3)oc12
41.5	CC(C)=CCc1cc(C2CCc3ccc(O)cc3O2)cc(O)c1O (centres undefined)
36.8	CC(C)=CCc1cc(C(=O)/C=C/c2ccc(O)c(O)c2)c(O)cc1O [BROUSSOCHALCONE A]
